# Source: PMC3272785 (2011)
# Legend:
# [1] = target: T1, yeast cytosine deaminase (yCD) (Saccharomyces cerevisiae, UniProt Q12178); test: fluorometric titration; type: binding
# T1 sequence (Q12178 6-158): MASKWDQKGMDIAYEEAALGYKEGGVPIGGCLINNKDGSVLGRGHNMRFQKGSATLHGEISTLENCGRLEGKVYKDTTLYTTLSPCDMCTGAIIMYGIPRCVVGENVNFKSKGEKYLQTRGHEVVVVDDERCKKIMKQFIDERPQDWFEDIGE
# [2] = target: T2, yeast cytosine deaminase (yCD) (Saccharomyces cerevisiae, UniProt Q12178, E64D); test: radiometric 5FC deamination inhibition assay; type: biochemical
# T2 sequence (Q12178 6-158 E64D): T1 sequence (Q12178 6-158)
compound,measurement,setting,value
"Oc1ncc(F)cn1 [5FPy, 5-fluoro-1H-pyrimidin-2-one]",Kd,[1],0.65 ± 0.08 µM
same,Ki,[2],1060 ± 60 µM
